Tests used:
GPAT3_C306 = target: T1, GPAT3_C306 (Homo sapiens, UniProt Q53EU6); assay: IA-DTB cysteine engagement; format: binding; settings: 22Rv1 cells, 20 μM probe, 1 h, relative to DMSO
T1 construct: endogenous in cells; host or cells: 22Rv1
T1 sequence (Q53EU6 1-434): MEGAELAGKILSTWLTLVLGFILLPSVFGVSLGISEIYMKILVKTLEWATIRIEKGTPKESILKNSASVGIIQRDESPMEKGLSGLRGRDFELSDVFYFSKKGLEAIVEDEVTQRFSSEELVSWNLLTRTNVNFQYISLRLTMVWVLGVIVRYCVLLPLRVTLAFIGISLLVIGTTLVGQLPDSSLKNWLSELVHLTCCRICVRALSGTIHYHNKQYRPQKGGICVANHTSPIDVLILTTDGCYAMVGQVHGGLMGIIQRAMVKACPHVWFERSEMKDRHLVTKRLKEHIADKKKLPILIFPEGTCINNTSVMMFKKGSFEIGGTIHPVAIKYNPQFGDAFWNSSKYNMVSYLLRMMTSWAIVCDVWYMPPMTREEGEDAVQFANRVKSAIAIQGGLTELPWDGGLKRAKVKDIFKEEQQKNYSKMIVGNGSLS
How it was run: (§1)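 Cells were treated in situ with electrophilic probes, then lysed, and the lysates (2 mg/mL protein) were labeled with IA-DTB for 1 h at ambient temperature. After reduction, alkylation and trypsin digestion, labeled peptides were streptavidin-enriched, TMT-labeled and fractionated. Engagement ratios are probe vs DMSO reporter intensities, averaged across replicates.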

ZBED4_C599 = target: T2, ZBED4_C599 (Homo sapiens, UniProt O75132); assay: IA-DTB cysteine engagement; format: binding; settings: 22Rv1 cells, 20 μM probe, 1 h, relative to DMSO
T2 construct: endogenous in cells; host or cells: 22Rv1
T2 sequence (O75132 1-1171): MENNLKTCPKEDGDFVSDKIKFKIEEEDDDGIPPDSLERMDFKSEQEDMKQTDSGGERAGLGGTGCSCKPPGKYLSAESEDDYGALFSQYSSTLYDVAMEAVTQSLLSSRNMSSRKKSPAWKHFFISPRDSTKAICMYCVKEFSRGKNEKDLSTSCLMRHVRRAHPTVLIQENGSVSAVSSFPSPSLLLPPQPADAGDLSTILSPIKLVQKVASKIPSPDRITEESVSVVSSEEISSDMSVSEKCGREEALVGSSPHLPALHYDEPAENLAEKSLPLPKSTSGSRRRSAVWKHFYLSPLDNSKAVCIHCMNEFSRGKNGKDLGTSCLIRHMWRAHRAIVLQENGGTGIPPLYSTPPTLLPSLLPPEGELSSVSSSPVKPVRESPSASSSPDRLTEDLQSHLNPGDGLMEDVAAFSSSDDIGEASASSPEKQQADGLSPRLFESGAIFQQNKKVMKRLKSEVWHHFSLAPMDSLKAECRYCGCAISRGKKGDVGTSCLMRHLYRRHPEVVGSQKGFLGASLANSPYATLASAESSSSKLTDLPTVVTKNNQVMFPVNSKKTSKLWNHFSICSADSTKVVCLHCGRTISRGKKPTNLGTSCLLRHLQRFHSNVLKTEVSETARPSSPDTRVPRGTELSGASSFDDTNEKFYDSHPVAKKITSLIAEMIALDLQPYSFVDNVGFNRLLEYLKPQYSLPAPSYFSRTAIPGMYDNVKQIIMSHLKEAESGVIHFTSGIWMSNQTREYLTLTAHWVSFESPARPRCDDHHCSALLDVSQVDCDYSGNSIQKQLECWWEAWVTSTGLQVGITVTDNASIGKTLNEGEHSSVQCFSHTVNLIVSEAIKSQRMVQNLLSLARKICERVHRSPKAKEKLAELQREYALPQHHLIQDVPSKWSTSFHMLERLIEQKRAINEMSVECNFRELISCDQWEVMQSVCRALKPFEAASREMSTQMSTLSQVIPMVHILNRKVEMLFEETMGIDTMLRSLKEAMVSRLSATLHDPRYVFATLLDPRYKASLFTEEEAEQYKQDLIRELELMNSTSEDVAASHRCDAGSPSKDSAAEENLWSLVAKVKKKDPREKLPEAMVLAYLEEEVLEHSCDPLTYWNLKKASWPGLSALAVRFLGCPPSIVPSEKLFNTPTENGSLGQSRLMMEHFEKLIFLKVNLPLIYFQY
How it was run: as §1

| SMILES | % engagement GPAT3_C306 (GPAT3_C306) | % engagement ZBED4_C599 (ZBED4_C599) |
| --- | --- | --- |
| C=CC(=O)N1C[C@H](c2ccc(Br)cc2)[C@H]1C(=O)Nc1cccc2cccnc12 [MY-3A, (2S,3S)-1-acryloyl-3-(4-bromophenyl)-N-(quinolin-8-yl)azetidine-2-carboxamide] | 57% | 21% |
| C=CC(=O)N1C[C@H](c2ccc(Br)cc2)[C@@H]1C(=O)Nc1cccc2cccnc12 [MY-1B, (2R,3S)-1-acryloyl-3-(4-bromophenyl)-N-(quinolin-8-yl)azetidine-2-carboxamide] | 81.5% | 39% |
| C=CC(=O)N1C[C@H](c2ccc(Br)cc2)[C@H]1C(=O)Nc1cccc2cccnc12 [MY-3B, (2S,3S)-1-acryloyl-3-(4-bromophenyl)-N-(quinolin-8-yl)azetidine-2-carboxamide] | 100% | 83.5% |
| C=CC(=O)N1C[C@@H](c2ccc(Br)cc2)[C@H]1C(=O)Nc1cccc2cccnc12 [MY-1A, (2S,3R)-1-acryloyl-3-(4-bromophenyl)-N-(quinolin-8-yl)azetidine-2-carboxamide] | 75.75% | 16% |
